In ChEMBL document CHEMBL5346873, “Strategic modification of low-activity natural antimicrobial peptides confers antibacterial potential in vitro and in vivo” (Eur J Med Chem, 2023):
Calls of active or inactive are those of the source. The rule behind the calls is not given here.

Legend:
[1] = test system: Vibrio alginolyticus; test: Antibacterial activity against Vibrio alginolyticus incubated for 16 to 20 hrs; assay type: functional; details: time 16-20 hrs
[2] = test system: Klebsiella pneumoniae; test: Antibacterial activity against Klebsiella pneumoniae expressing NDM-1 in presence of human serum; assay type: functional, organism-based
[3] = test system: Edwardsiella tarda; test: Antibacterial activity against Edwardsiella tarda incubated for 16 to 20 hrs; assay type: functional; details: time 16-20 hrs
[4] = test system: Enterococcus faecalis; test: Antibacterial activity against Enterococcus faecalis incubated for 16 to 20 hrs; assay type: functional; details: time 16-20 hrs
[5] = Hemolytic activity in human RBC at 100 ug/ml incubated for 1 hr; assay type: toxicity, cell-based, Erythrocyte; details: human red blood cells (erythrocytes), at 100 µg/mL, read-out: Activity
[6] = test system: Acinetobacter baumannii; test: Synergistic antibacterial activity against Acinetobacter baumannii assessed as fractional inhibitory concentration in presence of doxycycline by checkerboard microtiter plate assay; assay type: functional
[7] = test system: Streptococcus agalactiae; test: Bactericidal activity against Streptococcus agalactiae incubated overnight; assay type: functional
[8] = test system: Enterococcus faecalis; test: Bactericidal activity against Enterococcus faecalis incubated overnight; assay type: functional
[9] = test system: Escherichia coli; test: Bactericidal activity against Escherichia coli incubated overnight; assay type: functional
[10] = test system: Vibrio anguillarum; test: Antibacterial activity against Listonella anguillarum incubated for 16 to 20 hrs; assay type: functional; details: time 16-20 hrs
[11] = test system: Streptococcus agalactiae; test: Antibacterial activity against Streptococcus agalactiae incubated for 16 to 20 hrs; assay type: functional; details: time 16-20 hrs
[12] = test system: Vibrio vulnificus; test: Antibacterial activity against Vibrio vulnificus 204 incubated for 16 to 20 hrs; assay type: functional; details: time 16-20 hrs
[13] = Cytotoxicity against human HaCaT cells incubated for 24 hrs by alamar blue assay; assay type: toxicity, cell-based; details: read-out: LD50
[14] = test system: Salmonella typhimurium; test: Antibacterial activity against Salmonella typhimurium incubated for 16 to 20 hrs; assay type: functional, Salmonella enterica subsp. enterica serovar Typhimurium; details: Salmonella enterica; time 16-20 hrs
[15] = test system: Vibrio harveyi; test: Antibacterial activity against Vibrio harveyi incubated for 16 to 20 hrs; assay type: functional; details: time 16-20 hrs
[16] = test system: Escherichia coli; test: Synergistic antibacterial activity against Escherichia coli assessed as fractional inhibitory concentration in presence of meropenem by checkerboard microtiter plate assay; assay type: functional
[17] = test system: Salmonella enterica; test: Antibacterial activity against Salmonella enterica incubated for 16 to 20 hrs; assay type: functional; details: time 16-20 hrs
[18] = test system: Vibrio vulnificus; test: Antibiofilm activity against Vibrio vulnificus V3 assessed as inhibition of biofilm formation at 25 ug/ml incubated for 24 hrs by crystal violet staining based assay; assay type: functional, organism-based; details: dose 25.0 µg/ml
[19] = Dermal toxicity in BALB/c mouse assessed as irritation at 125 mg/kg, TOPp measured after 48 hrs; assay type: organism-based; details: in vivo, topical_or_ocular
[20] = test system: Cell membrane; test: Induction of membrane lysis in Vibrio vulnificus at 1 time MIC incubated for 1 hr by TEM analysis; assay type: subcellular
[21] = test system: Pseudomonas aeruginosa; test: Additive antibacterial activity against Pseudomonas aeruginosa assessed as fractional inhibitory concentration in presence of meropenem by checkerboard microtiter plate assay; assay type: functional
[22] = test system: Vibrio vulnificus; test: Antibacterial activity against Vibrio vulnificus in presence of 1 to 10 ug/ml trypsin; assay type: functional, organism-based
[23] = test system: Vibrio alginolyticus; test: Bactericidal activity against Vibrio alginolyticus incubated overnight; assay type: functional
[24] = test system: Klebsiella aerogenes; test: Synergistic antibacterial activity against Enterobacter aerogenes assessed as meropenem MIC by checkerboard microtiter plate assay; assay type: functional
[25] = test system: Streptococcus iniae; test: Additive antibacterial activity against Streptococcus iniae in presence of meropenem by checkerboard microtiter plate assay; assay type: functional
[26] = test system: Pseudomonas aeruginosa; test: Additive antibacterial activity against Pseudomonas aeruginosa assessed as meropenem MIC by checkerboard microtiter plate assay; assay type: functional
[27] = test system: Klebsiella aerogenes; test: Synergistic antibacterial activity against Enterobacter aerogenes assessed as fractional inhibitory concentration in presence of meropenem by checkerboard microtiter plate assay; assay type: functional
[28] = test system: Vibrio vulnificus; test: Antibiofilm activity against Vibrio vulnificus V3 assessed as inhibition of biofilm formation at 25 to 100 ug/ml incubated for 24 hrs by crystal violet staining based assay; assay type: functional, organism-based; details: dose 25-100 µg/ml
[29] = test system: Streptococcus agalactiae; test: Synergistic antibacterial activity against Streptococcus agalactiae assessed as fractional inhibitory concentration in presence of doxycycline by checkerboard microtiter plate assay; assay type: functional
[30] = test system: Streptococcus iniae; test: Additive antibacterial activity against Streptococcus iniae assessed as fractional inhibitory concentration in presence of meropenem by checkerboard microtiter plate assay; assay type: functional
[31] = test system: Staphylococcus aureus; test: Bactericidal activity against Staphylococcus aureus incubated for overnight; assay type: functional
[32] = test system: Vibrio vulnificus; test: Bactericidal activity against Vibrio vulnificus V3 incubated overnight; assay type: functional
[33] = test system: Cell membrane; test: Induction of membrane depolarization in Vibrio vulnificus at 100 ug/ml by DiBAC4(3) dye based fluorescence analysis; assay type: subcellular; details: dose 100.0 µg/ml
[34] = test system: Escherichia coli; test: Antibacterial activity against Escherichia coli incubated for 16 to 20 hrs; assay type: functional; details: time 16-20 hrs
[35] = test system: Acinetobacter baumannii; test: Synergistic antibacterial activity against Acinetobacter baumannii in presence of doxycycline by checkerboard microtiter plate assay; assay type: functional
[36] = test system: Vibrio vulnificus; test: Antibacterial activity against Vibrio vulnificus 204 in presence of human serum; assay type: functional, organism-based
[37] = test system: Vibrio vulnificus; test: Synergistic antibacterial activity against Vibrio vulnificus assessed as meropenem MIC by checkerboard microtiter plate assay; assay type: functional
[38] = test system: Vibrio anguillarum; test: Bactericidal activity against Listonella anguillarum incubated overnight; assay type: functional
[39] = test system: Vibrio vulnificus; test: Antibacterial activity against Vibrio vulnificus in presence of proteinase K; assay type: functional, organism-based
[40] = test system: Aeromonas hydrophila; test: Bactericidal activity against Aeromonas hydrophila incubated overnight; assay type: functional
[41] = test system: Streptococcus iniae; test: Bactericidal activity against Streptococcus iniae incubated overnight; assay type: functional
[42] = test system: Klebsiella aerogenes; test: Synergistic antibacterial activity against Enterobacter aerogenes in presence of meropenem by checkerboard microtiter plate assay; assay type: functional
[43] = test system: Vibrio vulnificus; test: Antibiofilm activity against Vibrio vulnificus 204 assessed as inhibition of biofilm formation at 25 ug/ml incubated for 24 hrs by crystal violet staining based assay; assay type: functional, organism-based; details: dose 25.0 µg/ml
[44] = test system: Acinetobacter baumannii; test: Bactericidal activity against Acinetobacter baumannii incubated for overnight; assay type: functional
[45] = test system: Acinetobacter baumannii; test: Additive antibacterial activity against Acinetobacter baumannii assessed as fractional inhibitory concentration in presence of meropenem by checkerboard microtiter plate assay; assay type: functional
[46] = Dermal toxicity in BALB/c mouse assessed as morphological changes at 125 mg/kg, TOPp measured after 48 hrs; assay type: organism-based; details: in vivo, topical_or_ocular
[47] = test system: Vibrio vulnificus; test: Antibacterial activity against Vibrio vulnificus V3 incubated for 16 to 20 hrs; assay type: functional; details: time 16-20 hrs
[48] = test system: Streptococcus agalactiae; test: Synergistic antibacterial activity against Streptococcus agalactiae in presence of meropenem by checkerboard microtiter plate assay; assay type: functional
[49] = test system: Cell membrane; test: Induction of outer membrane lysis in Vibrio vulnificus at 100 ug/ml by NPN-dye based fluorescence analysis; assay type: subcellular; details: dose 100.0 µg/ml
[50] = test system: Staphylococcus haemolyticus; test: Bactericidal activity against Staphylococcus haemolyticus incubated overnight; assay type: functional
[51] = test system: Acinetobacter baumannii; test: Additive antibacterial activity against Acinetobacter baumannii in presence of meropenem by checkerboard microtiter plate assay; assay type: functional
[52] = test system: Vibrio vulnificus; test: Antibiofilm activity against Vibrio vulnificus V2 assessed as inhibition of biofilm formation at 50 to 100 ug/ml incubated for 24 hrs by crystal violet staining based assay; assay type: functional, organism-based; details: dose 50-100 µg/ml
[53] = test system: Staphylococcus haemolyticus; test: Antibacterial activity against Staphylococcus haemolyticus incubated for 16 to 20 hrs; assay type: functional; details: time 16-20 hrs
[54] = test system: Vibrio vulnificus; test: Antibiofilm activity against Vibrio vulnificus V3 assessed as inhibition of biofilm formation at 50 to 100 ug/ml incubated for 24 hrs by crystal violet staining based assay; assay type: functional, organism-based; details: dose 50-100 µg/ml
[55] = test system: Klebsiella pneumoniae; test: Synergistic antibacterial activity against Klebsiella pneumoniae expressing NDM1 in presence of doxycycline by checkerboard microtiter plate assay; assay type: functional
[56] = test system: Streptococcus agalactiae; test: Synergistic antibacterial activity against Streptococcus agalactiae in presence of doxycycline by checkerboard microtiter plate assay; assay type: functional
[57] = test system: Acinetobacter baumannii; test: Antibacterial activity against Acinetobacter baumannii; assay type: functional
[58] = test system: Acinetobacter baumannii; test: Additive antibacterial activity against Acinetobacter baumannii assessed as meropenem MIC by checkerboard microtiter plate assay; assay type: functional

H-FKWKSVLKGVKGFVKGYF-OH
MIC [1]: 3.12 mg/L | Activity [2]: Active | MIC [3]: 50 mg/L | MIC [4]: 50 mg/L | hemolysis at 1 h, 100 ug/ml [5]: 26.5% | FIC [6]: 0.07 | MBC [7]: 3.12 mg/L | MBC [8]: > 100 mg/L | MBC [9]: 6.25 mg/L | MIC [10]: 100 mg/L | MIC [11]: 3.12 mg/L | MIC [12]: 6.25 mg/L | CC50 at 24 h [13]: > 100 mg/L | MIC [14]: 12.5 mg/L | MIC [15]: > 100 mg/L | FIC [16]: 0.07 | MIC [17]: 12.5 mg/L | Activity [18]: inactive | Activity [19]: Non-Toxic | Activity [20]: Active | FIC [21]: 0.75 | Activity [22]: Active | MBC [23]: 6.25 mg/L | MIC [24]: 0.003 mg/L | MIC [25]: 0.024 mg/L | MIC [26]: 0.195 mg/L | FIC [27]: 0.14 | Activity [28]: Active | FIC [29]: 0.14 | FIC [30]: 0.51 | MBC [31]: 50 mg/L | MBC [32]: 12.5 mg/L | Activity [33]: Active | MIC [34]: 6.25 mg/L | MIC [35]: 0.048 mg/L | Activity [36]: Active | MIC [37]: 0.003 mg/L | MBC [38]: 100 mg/L | Activity [39]: Active | MBC [40]: > 100 mg/L | MBC [41]: < 1.56 mg/L | MIC [42]: 0.195 mg/L | Activity [43]: inactive | MBC [44]: 3.12 mg/L | FIC [45]: 0.51 | Activity [46]: Non-Toxic | MIC [47]: 12.5 mg/L | MIC [48]: 0.097 mg/L | Activity [49]: Active | MBC [50]: < 1.56 mg/L | MIC [51]: 0.048 mg/L | Activity [52]: Active | MIC [53]: < 1.56 mg/L | Activity [54]: Active | MIC [55]: 1.56 mg/L | MIC [56]: 0.097 mg/L | MIC [57]: 3.12 mg/L | MIC [58]: 0.195 mg/L

H-KKCIAKAILKKAKKLLKKLVNP-OH
MIC [1]: 3.12 mg/L | Activity [2]: Active | MIC [3]: > 100 mg/L | MIC [4]: 25 mg/L | hemolysis at 1 h, 100 ug/ml [5]: 5.5% | FIC [6]: 0.07 | MBC [7]: 3.12 mg/L | MBC [8]: > 100 mg/L | MBC [9]: 12.5 mg/L | MIC [10]: 50 mg/L | MIC [11]: 3.12 mg/L | MIC [12]: 6.25 mg/L | CC50 at 24 h [13]: > 100 mg/L | MIC [14]: 50 mg/L | MIC [15]: 25 mg/L | FIC [16]: 0.07 | MIC [17]: 12.5 mg/L | Activity [18]: inactive | Activity [19]: Non-Toxic | Activity [20]: Active | FIC [21]: 0.53 | Activity [22]: Active | MBC [23]: 6.25 mg/L | MIC [24]: 0.003 mg/L | MIC [25]: 0.048 mg/L | MIC [26]: 0.195 mg/L | FIC [27]: 0.14 | Activity [28]: Active | FIC [29]: 0.14 | FIC [30]: 0.51 | MBC [31]: > 100 mg/L | MBC [32]: 12.5 mg/L | Activity [33]: Active | MIC [34]: 12.5 mg/L | MIC [35]: 0.048 mg/L | Activity [36]: Active | MIC [37]: 0.003 mg/L | MBC [38]: 50 mg/L | Activity [39]: Active | MBC [40]: > 100 mg/L | MBC [41]: < 1.56 mg/L | MIC [42]: 0.097 mg/L | Activity [43]: inactive | MBC [44]: 1.56 mg/L | FIC [45]: 0.51 | Activity [46]: Non-Toxic | MIC [47]: 12.5 mg/L | MIC [48]: 0.195 mg/L | Activity [49]: Active | MBC [50]: < 1.56 mg/L | MIC [51]: 0.048 mg/L | Activity [52]: Active | MIC [53]: < 1.56 mg/L | Activity [54]: Active | MIC [55]: 3.12 mg/L | MIC [56]: 0.195 mg/L | MIC [57]: 3.12 mg/L | MIC [58]: 0.195 mg/L
